According to patent publication US8399674B2, “Quinolines” (Hoffman-La Roche Inc., priority 2007, dated 2013):
pKi: −log10 of the molar value.

Target: T1, recombinant human 5-HT5A receptor (Homo sapiens, UniProt P47898)
T1 construct: expressed in transfected cells; host or cells: HEK-EBNA (Human Embryonic Kidney-EBNA) cells, transient transfection; membranes
Assay: [3H]LSD radioligand binding assay, membranes of HEK-EBNA cells transiently expressing the receptor
Conditions: [3H]LSD approx. 1 nM, 120 min room temperature, Ki from IC50 by Cheng-Prussoff equation, read-out: Ki (affinity towards the human 5-HT5A receptor)
Experimental: A [^3H] LSD radioligand binding assay was used to determine the affinity of the compounds for the recombinant human 5-HT5A receptor, in membranes from transiently (cDNA) expressed 5-HT5A receptors in Human Embryonic Kidney-EBNA (HEK-EBNA) cells.
Assay buffer consisted of Tris (50 mM) buffer containing 1 mM EGTA, 10 mM MgCl2 (pH 7.4) and 10 μM pargyline. The binding assay was carried out in 96-well-plates in the presence of [^3H]LSD (approximately 1 nM), approximately 2 μg/well of membrane protein, and 0.5 mg of Ysi-poly-1-lysine SPA beads in a final volume of 200 μl of buffer. Non-specific binding was defined using methiothepin 2 μM. Compounds were tested at 10 concentrations. All assays were conducted in duplicate and repeated at least two times. Assay plates were incubated for 120 min at room temperature before centrifugation. Bound ligand was determined using a Packard Topcount scintillation counter. IC50 values were calculated using a non-linear curve fitting program and Ki values calculated using the Cheng-Prussoff equation.

T1 sequence (P47898 whole entry): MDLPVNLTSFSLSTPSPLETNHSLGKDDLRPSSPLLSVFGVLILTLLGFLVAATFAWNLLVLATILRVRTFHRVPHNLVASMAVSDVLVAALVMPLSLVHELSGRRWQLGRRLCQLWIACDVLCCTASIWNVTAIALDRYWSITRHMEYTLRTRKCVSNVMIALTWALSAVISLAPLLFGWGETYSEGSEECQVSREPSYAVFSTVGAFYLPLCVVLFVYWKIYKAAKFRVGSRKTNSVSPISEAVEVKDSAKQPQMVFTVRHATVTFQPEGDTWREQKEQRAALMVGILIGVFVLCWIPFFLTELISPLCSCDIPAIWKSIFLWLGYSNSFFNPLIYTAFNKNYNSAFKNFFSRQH

Row | Structure (SMILES) | pKi
1 | COc1ccccc1CNc1ccc2cc(CCc3ccccc3)ccc2n1 [Example 4, (2-Methoxy-benzyl)-(6-phenethyl-quinolin-2-yl)-amine] | 6.98
2 | COc1ccccc1CNc1ccc2cc(NCc3cccnc3)ccc2n1 [Example 6, N2-(2-Methoxy-benzyl)-N6-pyridin-3-ylmethyl-quinoline-2,6-diamine] | 7.57
3 | c1ccc(OCCNc2ccc3cc(NCc4ccncc4)ccc3n2)cc1 [Example 7, N2-(2-Phenoxy-ethyl)-N6-pyridin-4-ylmethyl-quinoline-2,6-diamine] | 7.00
4 | COc1ccccc1CNc1ccc2nc(NCCOc3ccccc3)ccc2c1 [Example 9, N6-(2-Methoxy-benzyl)-N2-(2-phenoxy-ethyl)-quinoline-2,6-diamine] | 7.59
5 | COc1cccc(CNc2ccc3nc(NCCOc4ccccc4)ccc3c2)c1 [Example 10, N6-(3-Methoxy-benzyl)-N2-(2-phenoxy-ethyl)-quinoline-2,6-diamine] | 7.38
6 | COc1ccccc1CNc1ccc2cc(/C=C/c3cccnc3)ccc2n1 [Example 14, (2-Methoxy-benzyl)-[6-((E)-2-pyridin-3-yl-vinyl)-quinolin-2-yl]-amine] | 7.22
7 | COc1ccccc1CNc1ccc2cc(CCc3cccnc3)ccc2n1 [Example 18, (2-Methoxy-benzyl)-[6-(2-pyridin-3-yl-ethyl)-quinolin-2-yl]-amine] | 7.06
8 | COc1ccccc1CNc1ccc2nc(NCc3ccccc3OC)cc(-c3ccccc3)c2c1 [Example 20, N2,N6-Bis-(2-methoxy-benzyl)-4-phenyl-quinoline-2,6-diamine] | 7.52
9 | COc1ccccc1CNc1ccc2cc(NCCCn3ccnc3)ccc2n1 [Example 23, N6-(3-Imidazol-1-yl-propyl)-N2-(2-methoxy-benzyl)-quinoline-2,6-diamine] | 6.89
10 | COc1ccccc1CNc1ccc2nc(NCc3ccc(C)o3)ccc2c1 [Example 27, N6-(2-Methoxy-benzyl)-N2-(5-methyl-furan-2-ylmethyl)-quinoline-2,6-diamine] | 7.52
11 | COc1cccc(CNc2ccc3nc(NCc4ccc(C)o4)ccc3c2)c1 [Example 28, N6-(3-Methoxy-benzyl)-N2-(5-methyl-furan-2-ylmethyl)-quinoline-2,6-diamine] | 7.36
12 | Cc1ccc(CNc2ccc3cc(NCc4ccccc4)ccc3n2)o1 [Example 29, N6-Benzyl-N2-(5-methyl-furan-2-ylmethyl)-quinoline-2,6-diamine] | 7.49
13 | COc1cccc(-c2cc(NCc3ccccc3OC)nc3ccc(NCc4cccnc4)cc23)c1 [Example 33, N-2-(2-Methoxy-benzyl)-4-(3-methoxy-phenyl)-N-6-pyridin-3-ylmethyl-quinoline-2,6-diamine] | 7.30
14 | COc1cc(F)ccc1CNc1cc(-c2ccccc2)c2cc(NCc3ccccc3)ccc2n1 [Example 36, N-6-Benzyl-N-2-(4-fluoro-2-methoxy-benzyl)-4-phenyl-quinoline-2,6-diamine] | 7.38
15 | COc1cc(F)ccc1CNc1cc(-c2ccccc2)c2cc(NCc3ccncc3)ccc2n1 [Example 37, N-2-(4-Fluoro-2-methoxy-benzyl)-4-phenyl-N-6-&-pyridin-4-ylmethyl-quinoline-2,6-diamine] | 7.40
16 | COc1cc(F)ccc1CNc1cc(-c2ccccc2C)c2cc(NCc3ccccc3)ccc2n1 [Example 38, N-6-2-Benzyl-N-2-(4-fluoro-2-methoxy-benzyl)-4-o-tolyl-quinoline-2,6-diamine] | 7.39
17 | COCCNc1cc(NCc2ccc(F)cc2OC)nc2ccc(NCc3ccccc3)cc12 [Example 42, N6-Benzyl-N2-(4-fluoro-2-methoxy-benzyl)-N4-(2-methoxy-ethyl)-quinoline-2,4,6-triamine] | 6.77
18 | COc1ccccc1CNc1ccc2cc(COc3ccccc3)ccc2n1 [Example 43, (2-Methoxy-benzyl)-(6-phenoxymethyl-quinolin-2-yl)-amine] | 7.14
19 | COc1cc(F)ccc1CNc1cc(N)c2cc(NCc3ccccc3)ccc2n1 [Example 44, N6-Benzyl-N2-(4-fluoro-2-methoxy-benzyl)-quinoline-2,4,6-triamine] | 7.40
20 | COc1ccccc1CNc1cc(N)c2cc(NCc3ccccc3)ccc2n1 [Example 47, N6-Benzyl-N2-(2-methoxy-benzyl)-quinoline-2,4,6-triamine] | 7.52
21 | Cc1ccc(CNc2ccc3cc(CNc4cccnc4)ccc3n2)o1 [Example 49, (5-Methyl-furan-2-ylmethyl)-[6-(pyridin-3-ylaminomethyl)-quinolin-2-yl]-amine] | 6.89
22 | COc1cccc(CNc2ccc3cc(NCc4cccnc4)ccc3n2)c1 [Example 57, N2-(3-Methoxy-benzyl)-N6-pyridin-3-ylmethyl-quinoline-2,6-diamine] | 7.43
23 | c1cncc(CNc2ccc3nc(NCc4cccc5c4OCO5)ccc3c2)c1 [Example 73, N2-Benzo[1,3]dioxol-4-ylmethyl-N6-pyridin-3-ylmethyl-quinoline-2,6-diamine] | 7.57
24 | COc1ccc(NC(=O)Nc2ccc3nc(NCc4ccccc4OC)ccc3c2)cc1 [Example 79, 1-[2-(2-Methoxy-benzylamino)-quinolin-6-yl]-3-(4-methoxy-phenyl)-urea] | 7.52
25 | COc1ccc(OC(=O)Nc2ccc3nc(NCc4ccccc4OC)ccc3c2)cc1 [Example 80, [2-(2-Methoxy-benzylamino)-quinolin-6-yl]-carbamic acid 4-methoxy-phenyl ester] | 7.06
26 | COc1ccccc1CNc1ccc2cc(NS(=O)(=O)Nc3ccc(F)cc3)ccc2n1 [Example 81, N-(4-fluorophenyl)-N′-{2-[(2-methoxybenzyl)amino]quinolin-6-yl}sulfamide] | 7.40
27 | COc1ccccc1CNc1ccc2cc(Nc3cccc(CCO)c3)ccc2n1 [Example 103, 2-{3-[2-(2-Methoxy-benzylamino)-quinolin-6-ylamino]-phenyl}-ethanol] | 7.60

More lines, now with the values ahead:

Row | pKi | Structure (SMILES)
28 | 7.60 | COc1ccccc1CNc1ccc2cc(NCc3ccccc3OC(F)(F)F)ccc2n1 [Example 17, N2-(2-Methoxy-benzyl)-N6-(2-trifluoromethoxy-benzyl)-quinoline-2,6-diamine]
29 | 7.66 | c1ccc(OCCNc2ccc3cc(NCc4cccnc4)ccc3n2)cc1 [Example 1, N2-(2-Phenoxy-ethyl)-N6-pyridin-3-ylmethyl-quinoline-2,6-diamine]
30 | 7.66 | COc1ccccc1CNc1ccc2cc(NCc3ccccc3)ccc2n1 [Example 8, N6-Benzyl-N2-(2-methoxy-benzyl)-quinoline-2,6-diamine]
31 | 7.66 | COc1cccc(CNc2ccc3nc(NCc4ccccc4OC)cc(-c4ccccc4)c3c2)c1 [Example 19, N6-(3-Methoxy-benzyl)-N2-(2-methoxy-benzyl)-4-phenyl-quinoline-2,6-diamine]
32 | 7.66 | Cc1ccc(CNc2ccc3cc(NCc4cccnc4)ccc3n2)o1 [Example 25, N2-(5-Methyl-furan-2-ylmethyl)-N6-pyridin-3-ylmethyl-quinoline-2,6-diamine]
33 | 7.66 | COc1ccccc1CNc1cc(-c2cc(F)ccc2F)c2cc(NCc3cccnc3)ccc2n1 [Example 35, 4-(2,5-Difluoro-phenyl)-N2-(2-methoxy-benzyl)-N6-pyridin-3-ylmethyl-quinoline-2,6-diamine]
34 | 7.66 | Cc1ccc(CNc2cc(N)c3cc(NCc4cccnc4)ccc3n2)o1 [Example 54, N2-(5-Methyl-furan-2-ylmethyl)-N6-pyridin-3-ylmethyl-quinoline-2,4,6-triamine]
35 | 7.66 | Cc1ccc(CNc2cc(N)c3cc(NCc4ccccc4)ccc3n2)o1 [Example 55, N6-Benzyl-N2-(5-methyl-furan-2-ylmethyl)-quinoline-2,4,6-triamine]
36 | 7.77 | COc1ccccc1CNc1ccc2nc(NCc3ccccc3OC)ccc2c1 [Example 15, N2,N6-Bis-(2-methoxy-benzyl)-quinoline-2,6-diamine]
37 | 7.77 | COc1cccc(CNc2ccc3nc(NCc4ccccc4OC)ccc3c2)c1 [Example 16, N6-(3-Methoxy-benzyl)-N2-(2-methoxy-benzyl)-quinoline-2,6-diamine]
38 | 7.77 | COc1cc(F)ccc1CNc1cc(-c2ccccc2)c2cc(NCc3cccnc3)ccc2n1 [Example 31, N-2-(4-Fluoro-2-methoxy-benzyl)-4-phenyl-N-6-pyridin-3-ylmethyl-quinoline-2,6-diamine]
39 | 7.82 | COc1ccccc1CNc1cc(N)c2cc(NCc3cccnc3)ccc2n1 [Example 51, N2-(2-Methoxy-benzyl)-N6-pyridin-3-ylmethyl-quinoline-2,4,6-triamine]
40 | 7.92 | COc1ccccc1CNc1cc(-c2ccccc2C)c2cc(NCc3cccnc3)ccc2n1 [Example 32, N2-(2-Methoxy-benzyl)-N6-pyridin-3-ylmethyl-4-o-tolyl-quinoline-2,6-diamine]
41 | 7.96 | COc1ccccc1CNc1cc(-c2ccccc2)c2cc(NCc3cccnc3)ccc2n1 [Example 13, N2-(2-Methoxy-benzyl)-4-phenyl-N6-pyridin-3-ylmethyl-quinoline-2,6-diamine]

Test system: not given
Assay: not given
Conditions: not given

Row | melting point [°C] | Structure (SMILES)
42 | 217 | COc1ccccc1CNC(=O)c1ccc2nc(NCc3ccccc3OC)ccc2c1 [Example 76, 2-(2-Methoxy-benzylamino)-quinoline-6-carboxylic acid 2-methoxy-benzylamide]
43 | 175 | COc1ccccc1CNc1ccc2cc(Nc3ncccn3)ccc2n1 [Example 84, N2-(2-Methoxy-benzyl)-N6-pyrimidin-2-yl-quinoline-2,6-diamine]
